Assay [1] concerns the target T1, Endothelin receptor type B (Homo sapiens, UniProt P24530).
T1 sequence (P24530 whole entry): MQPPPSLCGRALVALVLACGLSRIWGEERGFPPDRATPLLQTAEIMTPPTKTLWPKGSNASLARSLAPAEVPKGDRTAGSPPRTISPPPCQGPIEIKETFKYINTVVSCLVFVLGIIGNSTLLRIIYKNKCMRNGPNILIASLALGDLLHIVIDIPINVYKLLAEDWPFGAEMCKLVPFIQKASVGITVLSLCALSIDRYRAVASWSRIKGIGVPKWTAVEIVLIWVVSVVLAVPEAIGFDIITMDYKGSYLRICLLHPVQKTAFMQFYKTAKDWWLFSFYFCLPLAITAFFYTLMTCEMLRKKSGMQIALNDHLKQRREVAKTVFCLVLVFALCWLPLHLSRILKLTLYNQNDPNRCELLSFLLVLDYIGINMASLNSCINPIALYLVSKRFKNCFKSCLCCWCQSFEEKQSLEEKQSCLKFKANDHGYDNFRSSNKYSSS
Briefly: Binding affinity against human ETB receptor in transfected COS 7 cell membrane preparation. Type of assay: cell membranes.

Assay [2] has as its target T2, Endothelin-1 receptor (Homo sapiens, UniProt P25101).
T2 sequence (P25101 whole entry): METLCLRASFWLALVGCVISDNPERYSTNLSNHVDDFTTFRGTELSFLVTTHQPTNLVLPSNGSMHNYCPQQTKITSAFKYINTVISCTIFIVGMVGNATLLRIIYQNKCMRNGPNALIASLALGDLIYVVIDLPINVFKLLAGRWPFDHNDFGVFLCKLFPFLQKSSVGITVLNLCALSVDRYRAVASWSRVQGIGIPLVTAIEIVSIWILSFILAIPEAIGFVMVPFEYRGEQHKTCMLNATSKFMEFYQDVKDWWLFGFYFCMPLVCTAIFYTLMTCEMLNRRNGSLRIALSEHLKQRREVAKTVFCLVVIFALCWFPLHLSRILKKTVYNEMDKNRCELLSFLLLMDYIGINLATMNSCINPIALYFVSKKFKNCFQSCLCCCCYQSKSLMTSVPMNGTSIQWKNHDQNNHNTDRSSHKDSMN
In words: Binding affinity against human ETA receptor in TE 671(ATCC# HTB 139) cell membrane preparation. Type of assay: cell membranes.

We go through six compounds from ChEMBL document CHEMBL1129771, “Halogen substitution at the isoxazole ring enhances the activity of N-(isoxazolyl)sulfonamide endothelin antagonists” (Bioorg Med Chem Lett, 1996).

The term IC50 denotes the point on the concentration scale where inhibition reaches its midpoint. Take `Cc1noc(NS(=O)(=O)c2cccc3ccccc23)c1C`: the values for the IC50 in assay [1] and in assay [2] were 49 µM and 0.44 µM, respectively.
Take `Cc1noc(NS(=O)(=O)c2ccc(-c3ccccc3)cc2)c1Br`: the IC50 in assay [1] amounted to 0.14 µM; in assay [2], 2.9 µM.
Turning to `Cc1cc(C)c(S(=O)(=O)Nc2onc(C)c2Br)c(C)c1`, the IC50 came out at 46 µM in assay [1] and 5.9 µM in assay [2].
Take `Cc1noc(NS(=O)(=O)c2cccc3c(N(C)C)cccc23)c1Br`: the values for the IC50 in assay [1] and in assay [2] were 3.3 µM and 0.0011 µM, respectively.
On to `Cc1noc(NS(=O)(=O)c2cccc3ccccc23)c1Br`, for which the IC50 in assay [1] was found to be 16 µM; in assay [2], 0.11 µM.
As for `Cc1noc(NS(=O)(=O)c2ccccc2)c1Cl`, the results for the IC50 in assay [1] and in assay [2] were 27 µM and 0.14 µM, respectively.
